# Measured values reported in patent publication US10597378B2 (priority 2017, dated 2020).
# Tests used:
# myc-tagged human MOR = target: T1, myc-tagged human MOR (Homo sapiens, UniProt P35372); experiment: cell-based
# T1 construct: myc; host or cells: mouse pituitary AtT-20 cells
# [1] = tested on: wild-type C57BL/6 (B6) mice; experiment: Tail flick test (acute thermal pain); format: in vivo, mouse
# B6 mice [2] = experiment: Tail-clip test (mechanical pain); format: in vivo, mouse; details: wildtype B6 mice
# Experimental: Each B6 mouse was placed in an acrylic box (10 cm in diameter, 30 cm high) and allowed to acclimate for 5 min before testing, and then a clip was applied 1-cm from the base of the tail. The latency to bite or grasp the clip was measured during the clip was applied to the tail. […] Regardless of the response to 20 s, a cut off time was set to avoid tissue damage.
# mice [3] = experiment: Tolerance and cross-tolerance, tail-flick test after 5 days twice-daily treatment; format: in vivo, mouse; details: day 6, equianalgesic dose
# [4] = Charcoal meal test (gastrointestinal transit); details: B6, mouse, in vivo, sc
# Experimental: (§1) B6 mice were fasted for at least 16 h before the study with free access to water. In a charcoal meal test, various doses of drugs were administered to the mice 30 min prior to the administration of an aqueous activated charcoal suspension (10% activated charcoal+5% gum Arabic; 0.3 mL). After 30 min, the mice were euthanized by intraperitoneal administration of a ketamine/xylazine cocktail (Sigma) followed by cervical dislocation and the total length of migration of the charcoal meal was measured from the pylorus to the ileocecal junction of the small intestine. The length of the intestine from pylorus to the caecum and the distance traveled by the charcoal were measured. The migration index was expressed as percentage of the distance traveled by the peristaltic charcoal meal relative to the total length of the small intestine, calculated according to the following formula. % of Gastrointestinal transit=Distance Travelled by Charcoal Meal/Full Length of the Small Intestine×100%
# (§2) Gastrointestinal propulsion was calculated as the percentage of the distance travelled by the charcoal meal relative to the total length of the small intestine, to control for individual variations. The percentage inhibition relative to the control was also calculated as: % Gastrointestinal Inhibition (GI)=(Control group−Drug-treated group)/Control group×100% […]
# B6 mice [5] = experiment: Charcoal meal test (gastrointestinal transit); details: equianalgesic doses
# Experimental: as §1, §2
# [6] = tested on: oxaliplatin-injected B6 mice; experiment: Oxaliplatin-induced neuropathic pain, mechanical allodynia (Von Frey test); format: in vivo, mouse; details: PID 3, 30 min after treatment, equi-antinociceptive doses
# Experimental: (§3) To induce neuropathic pain, each B6 mouse was intraperitoneally injected with either oxaliplatin (3.0 mg/kg), or vehicle (saline) after habituation to the test environment and baseline measurements of pain sensitivity. […] To induce cancer pain, each B6 mouse was injected with either 20 μL phosphate-buffered saline or cells (6×10^5 cells/20 μL phosphate-buffered saline) in the footpad of the right hind paw under isoflurane anesthesia on post-inoculation day 0. On post-inoculation day 19, i.e., the test day, mice were placed on a mesh floor with 5×5 mm holes, covered with a cup to prevent visual stimulation, and allowed to adapt for 1 h prior to testing. […] The tests were initiated with 0.5 g force. Briefly, whenever a withdrawal response occurred, the next weaker von Frey filament was applied. On the other hand, whenever no withdrawal response occurred, the next stronger filament was applied. Mechanical allodynia was defined as changes in the amount of pressure to induce the hind paw withdrawal.
# This treatment paradigm was followed to produce neuropathic pain mice.
# [7] = tested on: melanoma cell-implanted B6 mice; experiment: Cancer-induced pain (B16-F1 melanoma), mechanical allodynia (Von Frey test); format: in vivo, mouse
# Experimental: as §3, with “On post-inoculation day 19, i.e., the test day, mice were placed on a mesh floor with 5×5 mm holes, covered with a cup to prevent visual stimulation, and allowed to adapt for 1 h prior to testing.” left out
# (§4) The cold allodynia was tested using acetone drop test and mechanical allodynia was measured using the Von Frey test to examine the antinociceptive effects of each drug treatment.
# [8] = tested on: melanoma cell-implanted B6 mice; experiment: Cancer-induced pain, cold allodynia (acetone drop test); format: in vivo, mouse; details: PID18, 30 min after treatment
# Experimental: In cancer-induced pain model, cold allodynia in mice was assessed by using the acetone test. Absolute acetone (100%) in a volume of 5 μL was placed on the base of the paw in mice. […]
# as §4
# B6 mice [9] = experiment: Respiratory function test; details: acute, equi-antinociceptive doses, 10-60 min
# MOR [10] = target: T2, MOR (Homo sapiens, UniProt P35372); experiment: cell-based; set-up: host or cells: CHO-K1 (CHO-K1-MOR)
# Experimental: The PathHunter G protein-coupled receptor β-arrestin-2 assay (DiscoveRx) was performed according to the manufacturer's protocol. Briefly, when β-arrestin-2 translocates to the active receptor, complementary β-galactosidase fragments fused to the receptor and β-arrestin-2 interact to form a functional enzyme, which can be detected by chemiluminescence.
# Cells (5,000 per well) were then seeded in black 384-well assay plates with a CP2 reagent (DiscoveRx) and incubated for 24 h before running the assay. After each treatment, cells were incubated at room temperature for 1.5 h, followed by the addition of 8 μl of the PathHunter Detection reagent (DiscoveRx) and incubated for 1 h. Luminescence was detected using a Victor 2 plate reader. Studies were performed on the same day and the same passage of cells was used to ensure accurate comparisons of data.
# Opioid receptors have been reported to couple to G protein-independent β-arrestin-2-mediated pathways. […] The potency of the above three molecules in a β-arrestin-2 recruitment assay (PathHunter), which was based on enzyme complementation in Chinese hamster ovary (CHO)-K1 cells expressing human MOR (CHO-K1-MOR), was further examined.
# MOR [11] = target: T2, MOR; format: cell-based; set-up: host or cells: CHO-K1 (CHO-K1-MOR)
# B6 mice [12] = experiment: Cardiovascular function test (tail cuff plethysmography); details: acute, equi-antinociceptive doses
# mice [13] = experiment: Conditioned place preference (CPP) test, reinstatement of morphine CPP; details: challenge on reinstatement day (Day 21)
# T2 sequence (P35372 whole entry, the tested form may be a part): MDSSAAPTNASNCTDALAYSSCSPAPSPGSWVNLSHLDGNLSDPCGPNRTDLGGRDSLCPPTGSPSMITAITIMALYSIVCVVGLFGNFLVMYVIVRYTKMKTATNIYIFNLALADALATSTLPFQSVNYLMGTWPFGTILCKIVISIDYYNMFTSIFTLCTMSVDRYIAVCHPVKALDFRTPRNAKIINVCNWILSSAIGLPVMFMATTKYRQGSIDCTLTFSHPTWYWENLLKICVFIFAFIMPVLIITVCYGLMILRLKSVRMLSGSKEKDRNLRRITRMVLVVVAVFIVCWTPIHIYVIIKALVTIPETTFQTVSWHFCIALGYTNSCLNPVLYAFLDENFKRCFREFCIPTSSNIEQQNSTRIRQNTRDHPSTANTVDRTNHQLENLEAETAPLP
# T1 sequence (P35372 whole entry): as the sequence (P35372 whole entry, the tested form may be a part) above
structure (smiles),measurement,setting,value
"CN1CCc2ccccc2C1CNC(=O)c1ccc(Cl)c(Cl)c1 (centres unmarked) [Compound 67, 3,4-Dichloro-N-[(2-methyl-1,2,3,4-tetrahydro-1-isoquinolinyl)methyl]benzamide]",EC50,myc-tagged human MOR,0.0599 µM
same,Emax of membrane potential hyperpolarization,myc-tagged human MOR,slightly higher than that of morphine
same,ED50,"[1]; Mus musculus, sc, single subcutaneous injection, read-out: ED50 of antinociception",0.78 mg/kg
same,time at which analgesic effects were exerted after acute injection,"[1]; equi-antinociceptive doses, B6 mice",10 min
same,"antinociception (% of MPE, AUC)","[1]; single dose subcutaneous injection, 30-120 min",produced equi-antinociceptive effects at doses of 0.6-1.8 mg/kg
same,antinociception of mechanical pain,B6 mice [2],higher antinociceptive effect with mechanical stimuli than morphine
same,antinociceptive effects on challenge in morphine-tolerant mice,mice [3],significant increase in antinociceptive effects
same,ED50 at 60 min,[4],1.6 mg/kg
same,gastrointestinal dysfunction,B6 mice [5],less gastrointestinal dysfunction than morphine
same,antinociceptive effect in oxaliplatin-induced sensory allodynia,[6],comparable to that of morphine
same,antinociceptive effect after twice daily injection,[7]; 30 min on PID 21 and PID 23,more than that of morphine
same,withdrawal threshold,"[7]; PID19, 30 min after treatment, equi-antinociceptive doses",greater than that of morphine
same,licking and shaking frequency,[8],less than that of morphine
same,respiratory frequency,B6 mice [9],kept recovery of respiratory frequency after 30 min
same,EC50,MOR [10],1.9 µM
same,Emax of β-arrestin recruitment relative to morphine,MOR [10],3 fold
same,"β-arrestin recruitment, comparison",MOR [10],more β-arrestin recruitment than that in morphine but induced less β-arrestin recruitment than Met-5
same,MOR internalization,MOR [11],approximately two-fold that of the maximal responses of morphine
same,cardiovascular function,B6 mice [12],minimal effect on cardiovascular function
same,reinstatement of morphine CPP,mice [13],not Compound 67
